What was measured:
human TLR7 = target: T1, human TLR7 (Homo sapiens, UniProt Q9NYK1); assay: TLR7 inhibition reporter assay (HEK-Blue SEAP); type: cell-based; details: HEK-Blue cells overexpressing human TLR7, gardiquimod 7.5 μM, 22 hour incubation
T1 construct: host or cells: HEK-Blue cells
T1 sequence (Q9NYK1 27-1049): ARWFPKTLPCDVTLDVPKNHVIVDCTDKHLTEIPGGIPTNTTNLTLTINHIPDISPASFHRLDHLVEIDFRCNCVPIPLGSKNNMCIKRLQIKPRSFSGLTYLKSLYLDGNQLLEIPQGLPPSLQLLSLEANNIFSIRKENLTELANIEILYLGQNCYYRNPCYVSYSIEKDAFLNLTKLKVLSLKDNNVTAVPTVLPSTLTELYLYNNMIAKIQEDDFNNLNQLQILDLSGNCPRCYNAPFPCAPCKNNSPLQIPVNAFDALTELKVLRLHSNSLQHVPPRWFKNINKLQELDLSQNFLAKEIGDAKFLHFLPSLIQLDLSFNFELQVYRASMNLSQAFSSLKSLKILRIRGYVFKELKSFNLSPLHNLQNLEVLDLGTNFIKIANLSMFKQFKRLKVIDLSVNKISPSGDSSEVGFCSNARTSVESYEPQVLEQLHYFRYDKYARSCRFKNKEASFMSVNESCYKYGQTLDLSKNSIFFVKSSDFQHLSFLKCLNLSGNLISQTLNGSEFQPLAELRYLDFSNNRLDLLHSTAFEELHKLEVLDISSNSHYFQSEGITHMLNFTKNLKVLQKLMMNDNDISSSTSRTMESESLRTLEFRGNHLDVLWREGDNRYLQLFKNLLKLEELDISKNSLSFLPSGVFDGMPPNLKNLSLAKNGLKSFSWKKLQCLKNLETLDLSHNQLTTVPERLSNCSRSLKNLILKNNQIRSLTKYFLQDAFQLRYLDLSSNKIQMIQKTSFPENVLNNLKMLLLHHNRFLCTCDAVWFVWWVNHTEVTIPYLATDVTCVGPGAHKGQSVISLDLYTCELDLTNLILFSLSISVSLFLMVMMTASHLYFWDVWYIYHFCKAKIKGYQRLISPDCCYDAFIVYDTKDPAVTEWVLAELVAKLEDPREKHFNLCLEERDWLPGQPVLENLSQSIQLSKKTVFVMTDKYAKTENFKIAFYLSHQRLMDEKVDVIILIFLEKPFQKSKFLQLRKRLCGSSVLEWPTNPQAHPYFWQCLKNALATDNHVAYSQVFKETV
In short: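 In this cell reporter format, test compounds at 0.05 nM-50 μM final incubate 22 h with seeded cells (TLR7 15000, TLR8 20,000 per well). SEAP read-out by HEK-Blue Detection medium yields % inhibition relative to agonist/DMSO and known-inhibitor wells.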

human TLR8 = target: T2, human TLR8 (Homo sapiens, UniProt Q9NR97); assay: TLR8 inhibition reporter assay (HEK-Blue SEAP); type: cell-based; details: HEK-Blue cells overexpressing human TLR8, R848 15.9 μM, 22 hour incubation
T2 construct: host or cells: HEK-Blue cells
T2 sequence (Q9NR97 27-1041): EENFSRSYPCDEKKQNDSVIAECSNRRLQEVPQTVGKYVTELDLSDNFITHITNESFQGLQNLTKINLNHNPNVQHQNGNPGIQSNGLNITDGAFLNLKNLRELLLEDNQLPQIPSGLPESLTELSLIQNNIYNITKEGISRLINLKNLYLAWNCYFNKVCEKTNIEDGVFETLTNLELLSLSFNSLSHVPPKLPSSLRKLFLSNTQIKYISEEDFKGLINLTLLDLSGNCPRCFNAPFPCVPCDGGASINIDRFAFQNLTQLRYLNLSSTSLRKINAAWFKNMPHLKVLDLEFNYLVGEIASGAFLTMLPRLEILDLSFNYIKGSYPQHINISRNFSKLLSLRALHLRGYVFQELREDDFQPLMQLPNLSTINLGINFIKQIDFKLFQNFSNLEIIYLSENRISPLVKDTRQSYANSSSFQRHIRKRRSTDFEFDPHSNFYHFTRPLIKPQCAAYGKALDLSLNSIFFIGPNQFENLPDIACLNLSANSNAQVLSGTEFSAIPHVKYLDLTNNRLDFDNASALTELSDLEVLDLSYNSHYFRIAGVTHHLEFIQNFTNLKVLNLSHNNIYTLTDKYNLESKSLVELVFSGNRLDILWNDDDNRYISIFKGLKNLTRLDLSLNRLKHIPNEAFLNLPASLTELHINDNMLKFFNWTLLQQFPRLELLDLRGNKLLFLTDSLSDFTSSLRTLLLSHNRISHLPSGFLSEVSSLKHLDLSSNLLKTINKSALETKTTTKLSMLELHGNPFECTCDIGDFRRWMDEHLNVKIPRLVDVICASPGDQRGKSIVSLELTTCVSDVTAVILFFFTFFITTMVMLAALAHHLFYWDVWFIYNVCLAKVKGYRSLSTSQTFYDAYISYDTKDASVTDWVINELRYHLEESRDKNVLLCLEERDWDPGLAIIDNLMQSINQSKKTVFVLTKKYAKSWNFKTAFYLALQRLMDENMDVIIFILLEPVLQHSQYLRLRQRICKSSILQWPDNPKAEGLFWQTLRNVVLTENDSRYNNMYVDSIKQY
In short: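 Dose–response from 0.05 nM to 50 μM was run in HEK-Blue human TLR7, TLR8 and TLR9 reporter cells. After 30 min at room temperature with compound, ligand was added (TLR7 gardiquimod 7.5 μM; TLR8 R848 15.9 μM; TLR9 ODN2006 5 nM) and SEAP measured next day, at 22 h.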

IC50 (human TLR7) [nM] | IC50 (human TLR8) [nM] | Structure (SMILES)
1.42 | 4.29 | CCc1cc2c(cc1-c1cc(OC)c3ncnn3c1)[nH]c(=O)n2[C@@H]1CCCN(CC(C)(C)C)C1 [Example 180, (R)-6-ethyl-5-(8-methoxy-[1,2,4]triazolo[1,5-a]pyridin-6-yl)-1-(1-neopentylpiperidin-3-yl)-1,3-dihydro-2H-benzo[d]imidazol-2-one]
0.81 | 1.68 | CCc1cc2c(cc1-c1cc(OC)c3ncnn3c1)[nH]c(=O)n2[C@@H]1CCCN(CC2CCC2)C1 [Example 181, (R)-1-(1-(cyclobutylmethyl)piperidin-3-yl)-6-ethyl-5-(8-methoxy-[1,2,4]triazolo[1,5-a]pyridin-6-yl)-1,3-dihydro-2H-benzo[d]imidazol-2-one]
1.93 | 2.31 | CCc1cc2c(cc1-c1cc(OC)c3ncnn3c1)[nH]c(=O)n2[C@@H]1CCCN(CC2CC2)C1 [Example 182, (R)-1-(1-(cyclopropylmethyl)piperidin-3-yl)-6-ethyl-5-(8-methoxy-[1,2,4]triazolo[1,5-a]pyridin-6-yl)-1,3-dihydro-2H-benzo[d]imidazol-2-one]
12.2 | 6.44 | CCc1cc2c(cc1-c1cc(OC)c3ncnn3c1)[nH]c(=O)n2[C@@H]1CCCN(CCC(F)(F)F)C1 [Example 183, (R)-6-ethyl-5-(8-methoxy-[1,2,4]triazolo[1,5-a]pyridin-6-yl)-1-(1-(3,3,3-trifluoropropyl)piperidin-3-yl)-1,3-dihydro-2H-benzo[d]imidazol-2-one]
12.1 | 14.3 | CCc1cc2c(cc1-c1cc(OC)c3ncnn3c1)[nH]c(=O)n2[C@@H]1CCCN(C2CCOCC2)C1 [Example 184, (R)-6-ethyl-5-(8-methoxy-[1,2,4]triazolo[1,5-a]pyridin-6-yl)-1-(1-(tetrahydro-2H-pyran-4-yl)piperidin-3-yl)-1,3-dihydro-2H-benzo[d]imidazol-2-one]
3.39 | 0.36 | Cc1c(-c2cc3[nH]c(=O)n([C@H]4CC[C@@H](N(C)C)CC4)c3cc2C(C)C)cn2ncnc2c1C [Example 185, 5-(7,8-dimethyl-[1,2,4]triazolo[1,5-a]pyridin-6-yl)-1-((1s,4s)-4-(dimethylamino)cyclohexyl)-6-isopropyl-1,3-dihydro-2H-benzo[d]imidazol-2-one]
0.95 | 0.13 | Cc1c(-c2cc3[nH]c(=O)n([C@H]4CC[C@@H](NC(C)C)CC4)c3cc2C(C)C)cn2ncnc2c1C [Example 186, 5-(7,8-dimethyl-[1,2,4]triazolo[1,5-a]pyridin-6-yl)-6-isopropyl-1-((1s,4s)-4-(isopropylamino)cyclohexyl)-1,3-dihydro-2H-benzo[d]imidazol-2-one]
4.09 | 0.8 | Cc1c(-c2cc3[nH]c(=O)n([C@H]4CC[C@@H](NC5CCOCC5)CC4)c3cc2C(C)C)cn2ncnc2c1C [Example 187, 5-(7,8-dimethyl-[1,2,4]triazolo[1,5-a]pyridin-6-yl)-6-isopropyl-1-((1s,4s)-4-((tetrahydro-2H-pyran-4-yl)amino)cyclohexyl)-1,3-dihydro-2H-benzo[d]imidazol-2-one]
7.14 | 0.95 | Cc1c(-c2cc3[nH]c(=O)n([C@H]4CC[C@@H](NC5COC5)CC4)c3cc2C(C)C)cn2ncnc2c1C [Example 188, 5-(7,8-dimethyl-[1,2,4]triazolo[1,5-a]pyridin-6-yl)-6-isopropyl-1-((1s,4s)-4-(oxetan-3-ylamino)cyclohexyl)-1,3-dihydro-2H-benzo[d]imidazol-2-one]
9.82 | 3.11 | CCN[C@H]1CC[C@@H](n2c(=O)[nH]c3cc(-c4cn5ncnc5c(C)c4C)c(C(C)C)cc32)CC1 [Example 189, 5-(7,8-dimethyl-[1,2,4]triazolo[1,5-a]pyridin-6-yl)-1-((1s,4s)-4-(ethylamino)cyclohexyl)-6-isopropyl-1,3-dihydro-2H-benzo[d]imidazol-2-one]
5.72 | 0.08 | Cc1c(-c2cc3[nH]c(=O)n([C@H]4CC[C@@H](NCC(C)(C)C)CC4)c3cc2C(C)C)cn2ncnc2c1C [Example 190, 5-(7,8-dimethyl-[1,2,4]triazolo[1,5-a]pyridin-6-yl)-6-isopropyl-1-((1s,4s)-4-(neopentylamino)cyclohexyl)-1,3-dihydro-2H-benzo[d]imidazol-2-one]
1.49 | 0.58 | COc1cc(-c2cc3[nH]c(=O)n([C@H]4CC[C@@H](N(C)C)CC4)c3cc2C(C)C)cn2ncnc12 [Example 191, 1-((1s,4s)-4-(dimethylamino)cyclohexyl)-6-isopropyl-5-(8-methoxy-[1,2,4]triazolo[1,5-a]pyridin-6-yl)-1,3-dihydro-2H-benzo[d]imidazol-2-one]
1.97 | 0.44 | COc1cc(-c2cc3[nH]c(=O)n([C@H]4CC[C@@H](NC(C)C)CC4)c3cc2C(C)C)cn2ncnc12 [Example 192, 6-isopropyl-1-((1s,4s)-4-(isopropylamino)cyclohexyl)-5-(8-methoxy-[1,2,4]triazolo[1,5-a]pyridin-6-yl)-1,3-dihydro-2H-benzo[d]imidazol-2-one]
2.22 | 0.48 | COc1cc(-c2cc3[nH]c(=O)n([C@H]4CC[C@@H](NC5CCOCC5)CC4)c3cc2C(C)C)cn2ncnc12 [Example 193, 6-isopropyl-5-(8-methoxy-[1,2,4]triazolo[1,5-a]pyridin-6-yl)-1-((1s,4s)-4-((tetrahydro-2H-pyran-4-yl)amino)cyclohexyl)-1,3-dihydro-2H-benzo[d]imidazol-2-one]
2.28 | 0.11 | CCC(CC)CN[C@H]1CC[C@@H](n2c(=O)[nH]c3cc(-c4cc(OC)c5ncnn5c4)c(C(C)C)cc32)CC1 [Example 194]
1.39 | 0.27 | CCCN[C@H]1CC[C@@H](n2c(=O)[nH]c3cc(-c4cc(OC)c5ncnn5c4)c(C(C)C)cc32)CC1 [Example 195, 6-isopropyl-5-(8-methoxy-[1,2,4]triazolo[1,5-a]pyridin-6-yl)-1-((1 s,4s)-4-(propylamino)cyclohexyl)-1,3-dihydro-2H-benzo[d]imidazol-2-one]
4.1 | 0.05 | COc1cc(-c2cc3[nH]c(=O)n([C@H]4CC[C@@H](NCC5CCOCC5)CC4)c3cc2C(C)C)cn2ncnc12 [Example 196, 6-isopropyl-5-(8-methoxy-[1,2,4]triazolo[1,5-a]pyridin-6-yl)-1-((1s,4s)-4-(((tetrahydro-2H-pyran-4-yl)methyl)amino)cyclohexyl)-1,3-dihydro-2H-benzo[d]imidazol-2-one]
